Reference: ChEMBL document CHEMBL1142443, “Design and synthesis of reboxetine analogs morpholine derivatives as selective norepinephrine reuptake inhibitors” (Bioorg Med Chem Lett, 2008)

Columns and labels:
[1] = target: Sodium-dependent noradrenaline transporter (Homo sapiens) (UniProt P23975); assay: Binding affinity at NET
[2] = target: Sodium-dependent serotonin transporter (Homo sapiens) (UniProt P31645); assay: Binding affinity at SERT
Sequence of Sodium-dependent serotonin transporter (Homo sapiens) (P31645 whole entry, looked up): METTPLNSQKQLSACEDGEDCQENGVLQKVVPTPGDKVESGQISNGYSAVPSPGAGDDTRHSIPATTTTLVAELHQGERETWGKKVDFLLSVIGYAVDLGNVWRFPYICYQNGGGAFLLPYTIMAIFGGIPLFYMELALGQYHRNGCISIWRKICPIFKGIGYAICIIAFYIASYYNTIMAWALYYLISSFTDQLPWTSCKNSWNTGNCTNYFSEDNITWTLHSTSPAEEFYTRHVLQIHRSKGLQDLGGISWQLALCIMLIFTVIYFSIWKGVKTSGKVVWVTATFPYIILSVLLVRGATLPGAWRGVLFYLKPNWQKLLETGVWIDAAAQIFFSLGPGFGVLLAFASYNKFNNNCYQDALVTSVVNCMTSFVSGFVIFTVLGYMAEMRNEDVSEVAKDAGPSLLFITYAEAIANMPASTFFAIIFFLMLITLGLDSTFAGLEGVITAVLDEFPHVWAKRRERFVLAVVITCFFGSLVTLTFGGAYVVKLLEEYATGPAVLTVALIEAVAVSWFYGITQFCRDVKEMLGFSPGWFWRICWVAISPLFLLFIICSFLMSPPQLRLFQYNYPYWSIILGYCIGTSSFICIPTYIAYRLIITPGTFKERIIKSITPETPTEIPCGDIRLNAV

Sequence of Sodium-dependent noradrenaline transporter (Homo sapiens) (P23975 whole entry): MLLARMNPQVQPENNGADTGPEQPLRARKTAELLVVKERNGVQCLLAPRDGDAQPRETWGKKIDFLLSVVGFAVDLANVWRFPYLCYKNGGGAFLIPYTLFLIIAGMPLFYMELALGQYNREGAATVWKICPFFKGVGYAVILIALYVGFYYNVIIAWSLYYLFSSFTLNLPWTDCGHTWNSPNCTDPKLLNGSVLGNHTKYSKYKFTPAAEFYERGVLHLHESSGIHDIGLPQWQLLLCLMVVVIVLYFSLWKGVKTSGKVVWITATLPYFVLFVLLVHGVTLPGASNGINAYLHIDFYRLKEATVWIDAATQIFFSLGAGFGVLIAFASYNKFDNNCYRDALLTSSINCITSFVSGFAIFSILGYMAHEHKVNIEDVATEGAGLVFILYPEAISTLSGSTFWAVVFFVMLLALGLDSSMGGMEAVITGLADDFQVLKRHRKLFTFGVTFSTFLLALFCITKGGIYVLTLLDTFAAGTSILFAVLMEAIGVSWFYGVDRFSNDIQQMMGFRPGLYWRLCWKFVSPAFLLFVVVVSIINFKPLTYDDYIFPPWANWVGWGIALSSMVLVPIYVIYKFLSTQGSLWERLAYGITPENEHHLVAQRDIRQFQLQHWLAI

Structure (SMILES)	Activity [1] [nM]	Activity [2] [nM]
Fc1cccc(F)c1O[C@H](C1=CCCC1)[C@@H]1CNCCO1	2570	2530
Cc1coc([C@H](Oc2c(F)cccc2F)[C@@H]2CNCCO2)n1 (stereo in doubt; form 2)	19	> 10000
Brc1ccccc1O[C@@H](c1ccccc1)[C@@H]1CNCCO1	3	477
CCOc1cccc(F)c1O[C@@H](c1ccccc1)[C@@H]1CNCCO1	4	2570
COc1cccc(F)c1O[C@@H](c1ccccc1)[C@@H]1CNCCO1	2	> 3500
Cc1coc([C@@H](Oc2c(F)cccc2F)[C@@H]2CNCCO2)n1	6940	> 10000
Fc1cccc(F)c1O[C@@H](c1ccccc1)[C@@H]1CNCCO1	7	1210
Fc1cccc(F)c1O[C@@H](c1ncco1)[C@@H]1CNCCO1	9	> 10000
c1ccc([C@H](Oc2ccccc2C2CC2)[C@H]2CNCCO2)cc1	35	75
Fc1cccc(F)c1O[C@@H](c1cccc2c1OCC2)[C@@H]1CNCCO1	13	445
Fc1ccc(O[C@@H](c2ccccc2)[C@@H]2CNCCO2)cc1	21	1620
CCOc1ccccc1O[C@@H](c1cccc(OC)n1)[C@@H]1CNCCO1	28	676
CCOc1ccccc1O[C@@H](c1ccccn1)[C@@H]1CNCCO1	7	6910
CCOc1ccccc1O[C@@H](c1ccc(CC)cn1)[C@@H]1CNCCO1	49	8210
Fc1cccc(OC(c2ccccc2)C2CNCCO2)c1 (stereo not drawn)	11	13
CCOc1ccccc1O[C@@H](c1cccnc1)[C@@H]1CNCCO1	114	> 10000
CS(=O)(=O)c1ccccc1O[C@@H](c1ccccc1)[C@@H]1CNCCO1	1360	> 10000
Fc1cccc(F)c1O[C@@H](c1ccccn1)[C@@H]1CNCCO1	6	8980
Fc1ccc(O[C@@H](c2ccccc2)[C@@H]2CNCCO2)c(F)c1	16	617
Fc1cccc(F)c1O[C@@H](c1nccs1)[C@@H]1CNCCO1	19	> 10000
N#Cc1ccccc1O[C@@H](c1ccccc1)[C@@H]1CNCCO1	18	> 10000
Fc1ccccc1O[C@@H](c1ccccc1)[C@@H]1CNCCO1	7	6390
c1ccc([C@H](Oc2ccccc2C2CC2)[C@@H]2CNCCO2)cc1	2	482
Fc1cccc(F)c1O[C@@H](C1=CCCC1)[C@@H]1CNCCO1	20	3700
Fc1cccc(F)c1O[C@@H](Cc1ccccc1)[C@@H]1CNCCO1	66	912
Brc1ccccc1O[C@@H](c1ccccc1)[C@H]1CNCCO1	17	105
Cc1coc([C@H](Oc2c(F)cccc2F)[C@@H]2CNCCO2)n1 (stereo in doubt; form 1)	18	> 4500
CCOc1ccccc1O[C@@H](c1ncccc1C)[C@@H]1CNCCO1	27	3680
Cc1ccc(C(C)C)c(O[C@@H](c2ccccn2)[C@@H]2CNCCO2)c1	457	> 8400
